For 13 molecules, inhibition, IC50 and fold induction results are on record in patent US20080318954A1, “Compounds” (Cyclacel Limited, priority 2004, published 2008).

In general, inhibition refers to the share of the control response that was lost under treatment. The low end stands for little suppression, the high end for strong suppression. The fold induction is the signal under treatment as a multiple of the control signal.

The structures appear in SMILES notation.

Test [1] concerns the target T1, CDK4/cyclin D1 (Homo sapiens, UniProt P11802).
T1 construct: His6 (N); made in house; host or cells: CDK4: Sf9 insect cells (baculovirus); Cyclin D1: E. coli, Sf9
The test is described as follows: CDK/cyclin kinase assay, CDK4/cyclin D1. The test is classed as biochemical. Particulars: for inhibition at 1 µM: primary screening at 1 μM; for IC50: read-out: Kinase inhibition IC50 CDK4/D1. Here is the method:
(§1) CDK4/cyclin D1, CDK1/cyclin B, CDK2/cyclin E, CDK2/cyclin A, CDK9/cyclin T1 and CDK7/cyclin H, all with a His6 tag on the N-terminus, were expressed in Sf9 insect cells using an appropriate baculovirus construct. Sf9 culture (1.6×10^6 cells/mL) was infected (MOI of 3) for two days. The cells were harvested by low speed centrifugation and the protein was purified from the insect cell pellet by metal affinity chromatography. In short: the insect cell pellet was lysed in Buffer A (10 mM Tris-HCl pH 8.0, 150 mM NaCl, 0.02% NP-40, 5 mM β-mercaptoethanol, 20 mM NaF, 1 mM Na3VO4, and Sigma Protease Inhibitor Cocktail) by sonication. The soluble fraction was cleared by centrifugation and loaded onto Ni-NTA-Agarose (Qiagen). Non-bound protein was washed off with 300 mM NaCl, 5-15 mM imidazole in buffer A and the bound protein was eluted with buffer A supplemented with 250 mM imidazole. The purified proteins were extensively dialyzed against storage buffer (20 mM HEPES pH 7.4, 50 mM NaCl, 2 mM DTT, 1 mM EDTA, 1 mM EGTA, 0.02% NP-40, 10% v/v glycerol) and stored at −70° C.
(§2) Compounds were investigated for their CDK2/cyclin E, CDK2/cyclin A, CDK1/cyclin B, and CDK4/cyclin D1 inhibitory activity. His6-tagged recombinant human cyclin-dependent kinases CDK1/cyclin B1, CDK2/cyclin E, CDK2/cyclin A, and CDK4 were expressed in sf9 insect cells using a baculovirus expression system. Recombinant cyclin D1 was expressed in E. coli. Proteins were purified by metal chelate affinity chromatography to greater than 90% homogeneity. Kinase assays were performed in 96-well plates using recombinant CDK/cyclins. Assays were performed in assay buffer (25 mM β-glycerophosphate, 20 mM MOPS, 5 mM EGTA, 1 mM DTT, 1 mM […], pH 7.4), into which were added 2-4 μg of active enzyme with appropriate substrates (purified histone H1 for CDK1 and CDK2, recombinant GST-retinoblastoma protein (residues 773-928) for CDK4). The reaction was initiated by addition of Mg/ATP mix (15 mM MgCl2+100 μM ATP with 30-50 kBq per well of [γ-^32P]-ATP) and mixtures incubated for 10-45 min, as required, at 30° C. Reactions were stopped on ice, followed by filtration through p81 or GF/C filterplates (for CDK4) (Whatman Polyfiltronics, Kent, UK). After washing 3 times with 75 mM aq orthophosphoric acid, plates were dried, scintillant added and incorporated radioactivity measured in a scintillation counter (TopCount, Packard Instruments, Pangbourne, Berks, UK). Compounds for kinase assays were made up as 10 mM stocks in DMSO and diluted into 10% DMSO in assay buffer. Data was analysed using curve-fitting software (GraphPad Prism version 3.00 for Windows, GraphPad Software, San Diego Calif. USA) to determine IC50 values (concentration of test compound which inhibits kinase activity by 50%).

Test [2] deals with T2, CDK2/cyclin E (Homo sapiens, UniProt P24941).
T2 construct: His6 (N); made in house; host or cells: Sf9 insect cells (baculovirus)
The test is described as follows: CDK/cyclin kinase assay, CDK2/cyclin E. The test is classed as biochemical. Particulars: for inhibition at 1 µM: primary screening at 1 μM; for IC50: read-out: Kinase inhibition IC50 CDK2/E. Here is the method: as §1, §2

The target of test [3] is T3, CDK1/cyclin B1 (Homo sapiens, UniProt P06493).
T3 construct: His6 (N); made in house; host or cells: Sf9 insect cells (baculovirus)
T3 sequence (P06493 whole entry): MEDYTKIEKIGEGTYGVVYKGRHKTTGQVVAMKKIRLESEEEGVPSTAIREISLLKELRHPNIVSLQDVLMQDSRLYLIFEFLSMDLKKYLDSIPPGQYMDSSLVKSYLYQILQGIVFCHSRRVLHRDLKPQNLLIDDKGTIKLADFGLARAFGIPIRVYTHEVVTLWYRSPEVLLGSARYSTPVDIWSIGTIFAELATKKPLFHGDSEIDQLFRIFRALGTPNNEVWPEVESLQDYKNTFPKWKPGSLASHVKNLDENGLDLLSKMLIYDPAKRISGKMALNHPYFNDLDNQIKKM
T3 sequence (P14635 whole entry partner): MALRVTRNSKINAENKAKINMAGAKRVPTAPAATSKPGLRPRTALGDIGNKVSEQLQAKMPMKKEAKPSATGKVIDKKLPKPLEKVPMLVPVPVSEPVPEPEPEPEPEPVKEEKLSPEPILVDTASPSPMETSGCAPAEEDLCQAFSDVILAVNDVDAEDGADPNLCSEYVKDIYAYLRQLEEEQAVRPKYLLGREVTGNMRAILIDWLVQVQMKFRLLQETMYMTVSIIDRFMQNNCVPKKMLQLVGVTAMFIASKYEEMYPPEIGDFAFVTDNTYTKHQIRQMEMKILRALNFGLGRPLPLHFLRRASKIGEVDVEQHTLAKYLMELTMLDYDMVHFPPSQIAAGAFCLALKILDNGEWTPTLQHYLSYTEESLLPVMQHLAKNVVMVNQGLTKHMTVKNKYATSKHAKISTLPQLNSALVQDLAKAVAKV
Put plainly: CDK/cyclin kinase assay, CDK1/cyclin B1. The test is classed as biochemical. Particulars: for inhibition at 1 µM: primary screening at 1 μM; for IC50: read-out: Kinase inhibition IC50 CDK1/B1. On the procedure:
as §1, §2

The target in test [4] is T4, CDK2/cyclin A (Homo sapiens, UniProt P24941).
T4 construct: His6 (N); made in house; host or cells: Sf9 insect cells (baculovirus)
The test is described as follows: CDK/cyclin kinase assay, CDK2/cyclin A. The test is classed as biochemical. Particulars: for inhibition at 1 µM: primary screening at 1 μM; for IC50: read-out: Kinase inhibition IC50 CDK2/A. Here is the method: as §1, §2

The target of test [5] is T5, GSK-3β (Oryctolagus cuniculus, UniProt G1T8E2).
T5 construct: isolated from a strain of E. coli that carries a clone expressing GSK-3β derived from a rabbit skeletal muscle cDNA library [34]
T5 sequence (G1T8E2 1-432): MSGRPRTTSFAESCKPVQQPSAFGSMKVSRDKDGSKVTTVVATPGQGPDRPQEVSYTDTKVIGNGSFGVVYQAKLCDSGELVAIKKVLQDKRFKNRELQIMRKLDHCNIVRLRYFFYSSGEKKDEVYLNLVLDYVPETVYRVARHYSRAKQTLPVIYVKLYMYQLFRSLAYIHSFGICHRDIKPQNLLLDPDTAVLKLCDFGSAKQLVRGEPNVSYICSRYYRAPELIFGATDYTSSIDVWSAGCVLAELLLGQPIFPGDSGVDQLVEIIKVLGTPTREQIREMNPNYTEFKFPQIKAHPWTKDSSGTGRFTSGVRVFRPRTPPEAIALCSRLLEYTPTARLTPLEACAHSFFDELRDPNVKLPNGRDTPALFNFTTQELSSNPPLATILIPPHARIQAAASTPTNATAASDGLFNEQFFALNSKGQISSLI
Put plainly: GSK-3β kinase assay. It is filed as biochemical, rabbit. Conditions: read-out: Kinase inhibition IC50 GSK3β. Here is the method:
GSK-3 was obtained from New England Biolabs (UK) Ltd., Hitchin, Herts. The recombinant enzyme was isolated from a strain of E. coli that carries a clone expressing GSK-3β derived from a rabbit skeletal muscle cDNA library. Inhibition of GSK-3 function was assessed by measurement of phosphorylation of CREB phosphopeptide KRREILSRRPpSYR in the presence of test compounds. Using a 96-well assay format, GSK3 (7.5 U) was incubated for 30 min at 30° C. in a total volume of 25 μL in 20 mM MOPS pH 7.2, 25 mM β-glycerophosphate, 5 mM EGTA, 1 mM DTT, 1 mM […], 40 μM CREB peptide, 15 mM MgCl2 and 100 μM ATP (containing 0.25 μCi [γ-^32P]-ATP) in the presence of varying concentrations of test compound. The samples were transferred to 96-well p81 filter plates (Whatman Polyfiltronics, Kent, UK), and the plates were washed 4 times with 200 μL/well of 75 mM aq orthophosphoric acid. Scintillation liquid (50 μL) was added to each well, and incorporated radioactivity for each sample was determined using a scintillation counter (TopCount, Packard Instruments, Pangbourne, Berks, UK).

In test [6] the test system is glycogen synthase activity in HEK293 cells. Put plainly: Glycogen synthase (GS) assay in HEK293 cells. It is filed as cell-based, human. Conditions: Homo sapiens; In HEK293 cells at [compound] = 5 μM (Table 2). On the procedure: Cells on 10 cm dishes (Human Embryonic Kidney (HEK) 293 cells, L6 rat myocytes, or 3T3 mouse adipocytes) were treated with different concentrations of GSK3-inhibitors or DMSO vehicle for 90 min. Incubation medium was removed and cells were washed with ice-cold phosphate-buffered saline (PBS) prior to lysis on ice in 50 mM HEPES, pH 7.5, 10 mM EDTA, 100 mM NaF, 5 mM DTT, protease inhibitor cocktail (Sigma). After a freeze/thaw cycle the samples are sonicated for 10 sec and centrifuged at 15,000 g for 10 min at 4° C. Lysate supernatants were snap-frozen on liquid nitrogen and stored at −80° C. Lysates were assayed for glycogen synthase activity in buffer (50 mM Tris-HCl, pH 7.8, 20 mM EDTA, 25 mM NaF, 5 mM DTT, 1% glycogen, 0.3 mM UDP-glucose and 0.06 μCi of [^14C]-UDP-glucose in the presence of 0.1 or 10 mM glucose-6-phosphate. The reaction was carried out for 30 min at 30° C. 70 μL of the reaction mixture (total volume 90 μL) were transferred to a GFC 96-well filter plate (bottom sealed with foil), containing 140 μL 96% ethanol. The GFC plate was incubated for 1 h on ice and than washed with 66% ethanol. To each well 100 μL scintillant liquid was added and the radioactivity of the samples was measured using a scintillation counter (Topcount, HP). Data are expressed as -fold increase in glycogen synthase activity ratios over those of control samples.

T1 sequence (P11802 whole entry): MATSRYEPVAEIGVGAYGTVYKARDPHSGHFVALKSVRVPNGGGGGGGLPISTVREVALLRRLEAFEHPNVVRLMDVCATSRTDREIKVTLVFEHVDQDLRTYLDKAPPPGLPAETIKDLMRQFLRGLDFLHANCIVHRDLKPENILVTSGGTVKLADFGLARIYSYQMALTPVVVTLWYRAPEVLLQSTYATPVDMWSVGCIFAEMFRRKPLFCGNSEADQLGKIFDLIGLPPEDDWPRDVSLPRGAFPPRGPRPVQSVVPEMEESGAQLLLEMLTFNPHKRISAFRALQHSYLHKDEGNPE
T1 sequence (P24385 whole entry partner): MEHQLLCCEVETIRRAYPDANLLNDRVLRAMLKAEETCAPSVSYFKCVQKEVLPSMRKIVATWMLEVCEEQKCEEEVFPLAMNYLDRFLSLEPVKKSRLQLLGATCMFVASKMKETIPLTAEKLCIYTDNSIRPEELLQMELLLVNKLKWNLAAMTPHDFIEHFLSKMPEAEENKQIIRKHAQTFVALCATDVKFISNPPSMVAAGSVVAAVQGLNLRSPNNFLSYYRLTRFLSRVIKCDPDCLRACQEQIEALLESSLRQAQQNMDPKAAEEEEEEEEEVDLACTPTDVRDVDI

With `Cc1nc(-c2ccnc(Nc3cccc(C(F)(F)F)c3)n2)sc1C` [Compound X, [4-(4,5-Dimethyl-thiazol-2-yl)-pyrimidin-2-yl]-(3-trifluoromethyl-phenyl)-amine], the inhibition at 1 µM in test [1], in test [2], in test [3] and in test [4] was below 50% throughout. Besides, the IC50 in test [5] amounted to 12.2 µM.

In the case of `Cc1nc(-c2ccnc(Nc3ccc(Cl)c(C(F)(F)F)c3)n2)sc1C` [Compound XI, (4-Chloro-3-trifluoromethyl-phenyl)-[4-(4,5-dimethyl-thiazol-2-yl)-pyrimidin-2-yl]-amine], the inhibition at 1 µM in test [1], in test [2], in test [3] and in test [4] was below 50% throughout. In test [5], the IC50 was determined as 15.6 µM.

Regarding `Cc1nc(-c2ccnc(Nc3cccc(O)c3)n2)sc1C` [IX, 3-[4-(4,5-Dimethyl-thiazol-2-yl)-pyrimidin-2-ylamino]-phenol], the inhibition at 1 µM in test [1], in test [2], in test [3] and in test [4] was below 50% throughout. The IC50 in test [5] came out at 1.53 µM.

As for `CCOC(=O)c1sc(-c2ccnc(Nc3ccc(Cl)cc3)n2)nc1O` [VII, 2-[2-(4-Chloro-phenylamino)-pyrimidin-4-yl]-4-hydroxy-thiazole-5-carboxylic acid ethyl ester], the IC50 in test [1] was above 10 µM; in test [2], above 1 µM; in test [3], above 10 µM; in test [4], above 10 µM; in test [5], 0.135 µM. Also, the fold induction at 5 µM in test [6] was determined as 2.3.

Regarding `Cc1nc(-c2ccnc(Nc3cccc(N)c3)n2)sc1C` [VIII, N-[4-(4,5-Dimethyl-thiazol-2-yl)-pyrimidin-2-yl]-benzene-1,3-diamine], the inhibition at 1 µM in test [1], in test [2], in test [3] and in test [4] was below 50% throughout. Moreover, the IC50 in test [5] worked out at 3.47 µM.

Regarding `COc1ccc(Nc2nccc(-c3nccs3)n2)cn1` [XIII, (6-Methoxy-pyridin-3-yl)-(4-thiazol-2-yl-pyrimidin-2-yl)-amine], the IC50 is above 100 µM in test [1]; above 50 µM in test [2]; above 100 µM in test [3]; above 100 µM in test [4]; 0.91 µM in test [5]. Besides, the fold induction at 5 µM in test [6] was 1.5.

As for `COc1ccc(Nc2nccc(-c3nc(C)c(C)s3)n2)cn1` [XVI, [4-(4,5-Dimethyl-thiazol-2-yl)-pyrimidin-2-yl]-(6-methoxy-pyridin-3-yl)-amine], the IC50 in test [1] was above 10 µM; in test [2], above 1 µM; in test [3], above 10 µM; in test [4], above 10 µM; in test [5], 5.45 µM.

Regarding `Cc1nc(-c2ccnc(Nc3ccc(Cl)nc3)n2)sc1C` [XVII, (6-Chloro-pyridin-3-yl)-[4-(4,5-dimethyl-thiazol-2-yl)-pyrimidin-2-yl]-amine], the IC50 in test [1] is above 10 µM; in test [2], above 10 µM; in test [3], above 10 µM; in test [4], above 10 µM; in test [5], 2.91 µM.

Regarding `Cc1sc(-c2ccnc(Nc3ccc(Cl)cc3)c2)nc1O` [XXII, 2-[2-(4-Chloro-phenylamino)-pyridin-4-yl]-5-methyl-thiazol-4-ol], the inhibition at 1 µM in test [1], in test [2], in test [3] and in test [4] was below 50% throughout. Also, the fold induction at 5 µM in test [6] is 1.5 ± 0.4. Further, the IC50 in test [5] was 0.47 µM.

With `c1cc(-c2nccs2)nc(Nc2ccc(N3CCCC3)nc2)n1` [XXIII, (6-Pyrrolidin-1-yl-pyridin-3-yl)-(4-thiazol-2-yl-pyrimidin-2-yl)-amine], the inhibition at 1 µM in test [1], in test [2], in test [3] and in test [4] was below 50% throughout. For the same molecule, the fold induction at 5 µM in test [6] was found to be 1.35 ± 0.07. In addition, in test [5], the IC50 was 0.482 µM.

In the case of `CCOC(=O)c1sc(-c2ccnc(Nc3ccc(Cl)nc3)n2)nc1O` [XXIV, 2-[2-(6-Chloro-pyridin-3-ylamino)-pyrimidin-4-yl]-4-hydroxy-thiazole-5-carboxylic acid ethylester], the IC50 in test [1] came to 0.96 µM; in test [5] it was 0.019 µM. Moreover, the fold induction at 5 µM in test [6] was 4.3 ± 0.32. The inhibition at 1 µM in test [2], in test [3] and in test [4] was below 50% each time.

With `Cc1sc(-c2ccnc(Nc3ccc(Cl)nc3)n2)nc1O` [XXV, 2-[2-(6-Chloro-pyridin-3-ylamino)-pyrimidin-4-yl]-5-methyl-thiazol-4-ol], the fold induction at 5 µM in test [6] was found to be 2.1 ± 0.3. The inhibition at 1 µM in test [2], in test [3] and in test [4] was below 50% throughout. For the same molecule, the IC50 in test [5] was found to be 0.08 µM.

Consider `Cc1cc(Nc2nccc(-c3nccs3)n2)cnc1Cl` [XXVII, (6-Chloro-5-methyl-pyridin-3-yl)-(4-thiazol-2-yl-pyrimidin-2-yl)-amine], for which, in test [6], the fold induction at 5 µM turned out to be 1.5 ± 0.4. The inhibition at 1 µM in test [2] was below 50%. Also, the IC50 in test [5] came out at 0.09 µM.
